Experimental data published in US20220088195A1, “Prevention or mitigation of T-cell bispecific antibody-related adverse effects” (Hoffmann-La Roche Inc., priority 2020, published 2022).
Entries after “also recorded” stand apart in the source; their conditions may differ.

Key:
Z138 target cells = assay: Two-stimulation killing assay, PBMCs + Z138 target cells + CD20-TCB; type: cell-based, human; conditions: 100 nM dasatinib upon re-stimulation; 1 nM CD20-TCB
Procedure: FIG. 23. In vitro killing assay set-up and timelines. PBMCs were co-cultured with carboxyfluorescein succinimidyl ester (CFSE) labelled Z138 target cells (E:T=5:1) and […] 1 nM CD20-TCB for 20h. Activated PBMCs were washed and restimulated on fresh, CTV labelled Z138 target cells (E:T=5:1) and 1 nM CD20-TCB in the presence or absence of 100 nM dasatinib.
(§1) FIG. 24. Dead Z138 cells upon first and second stimulation with 1 nM CD20-TCB in the presence and absence of 100 nM dasatinib in the assay of FIG. 23, as measured by flow cytometry. Cells were collected 20h after the first and 24 h after the second stimulation and stained with live dead NIR dye. Mean of technical replicates+/−SD. N=3 donors.
as §1, with “25.” for “24.”, “upon” for “upon first and”, “collected” for “collected 20h after the first and”, “after” for “after the”, “Three donors D1-D3 (A-C).” for “N=3 donors.”
A similar re-stimulation experiment was performed with a different TCB, targeting CD20 (CD20-TCB (SEQ ID NOs 28-35, 48-59), 1 nM), and the killing of Z138 target cells measured after the first and second stimulation (FIG. 23).

MKN45 NLR target cells = assay: Incucyte real time killing assay, PBMCs + MKN45 NLR target cells + CEA-TCB with escalating dasatinib; type: cell-based, human
Procedure: FIG. 1. Real time killing of red fluorescent A375 cells loaded with RMF peptides by 10 nM HLA-A2 WT-1-TCB (A) and of red fluorescent MKN45 cells by 1 nM CEA-TCB (B) in the presence of different dasatinib concentrations ranging from 100 nM to 0 nM. (A) A375 NucLight Red (NLR) target cells were pulsed with RMF peptides (2 hours before killing assay) and co-cultured with HLA-A2 WT1-TCB, dasatinib (dasa) and PBMCs, effector to target ratio (E:T)=10:1 (E:T=50 000 PBMCs:5000 target cells). Killing was followed by Incucyte® (1 scan every 3 hours, zoom 10×, phase and red 400 ms acquisition time). % Killing was measured by normalizing total red area with values at t=0 hour and target cells+PBMCs+dasatinib (without TCB) control wells for each time point. Means of technical replicates+/−SEM for 1 donor. (B) MKN45 NLR target cells were co-cultured with CEA TCB, dasatinib and PBMCs, E:T=10:1 (E:T=50 000 PBMCs:5000 target cells). Killing was followed by Incucyte (1 scan every 3 hours, zoom 10×, phase and red 400 ms acquisition time). % Killing was measured by normalizing total red area with values at t=0 hour and target cells+PBMCs+dasatinib control wells for each time point. Means of technical replicates+/−SEM for 1 donor.
To assess the inhibitory effect of dasatinib on TCB-mediated target-cell killing, we conducted killing assays using peripheral blood mononuclear cells (PBMCs), NucLight Red (NLR) target-cells and respective TCB in media supplemented with escalating concentrations of dasatinib. The Incucyte® system (Essen Bioscience) was used to capture the loss of red fluorescent protein signal over time as a readout of target-cell killing.

[1] = test system: IL-2, TNF-α, IFN-γ and IL-6; assay: CD19-TCB induced serum cytokine release in humanized NSG mice (Luminex); type: in vivo; conditions: 1.5 and 6 hrs post treatment, 50 mg/kg dasatinib p.o., monohydrate
Procedure: Humanized NSG mice were co-treated with 0.5 mg/kg CD19-TCB (i.v.) and 50 mg/kg dasatinib (p.o.) twice per day. Blood was collected by tail vein bleeding at 1.5 hrs, 6 hrs and 48 hrs after treatment with CD19-TCB. At 72 hrs, blood was collected retro-orbitally, before the termination of the experiment. N=4 mice per group.
Serum was collected from blood samples collected 1.5 hrs post treatment with CD19-TCB in the experiment described in FIG. 32. The levels of IL-2 (A), TNF-α (B), IFN-γ (C) and IL-6 (D) are measured by Luminex. Mean of n=4 mice+/−SEM. One way ANOVA, Kruskal Wallis test, p-value: 0.1234 (ns), 0.0332 (*), 0.0021 (**), 0.0001 (***), <0.0001 (****).
Serum is collected from blood samples collected 6 hrs post treatment with CD19-TCB in the experiment described in FIG. 32. The levels of IL-2 (A), TNF-α (B), IFN-γ (C) and IL-6 (D) are measured by Luminex. Mean of n=4 mice+/−SEM. One way ANOVA, Kruskal Wallis test, p-value: 0.1234 (ns), 0.0332 (*), 0.0021 (**), 0.0001 (***), <0.0001 (****).
To best mimick the pharmacodynamic profile of dasatinib in the clinic and to verify whether the resulting exposure would be sufficient to prevent CD19-TCB-induced T cell cytotoxicity and cytokine release, dasatinib was given per os twice per day.
Lastly, mice were bled 1.5 and 6 hrs post treatment with CD19-TCB and dasatinib to collect serum for cytokine measurements by Luminex (FIGS. 35 and 36).

CD4+ and CD8+ T cells [2] = assay: T cell proliferation (CTV dye dilution) and T cell counts in SKM-1 killing assay with HLA-A2 WT-1-TCB; type: cell-based, human
Procedure: FIG. 3. In vitro killing assay set-up and timelines. PBMCs were co-cultured with SKM-1 target cells (E:T=10:1) and 10 nM HLA-A2 WT-1-TCB. Dasatinib (100 nM) was added after 24 hours of activation. PBMCs were labelled with CellTrace™ Violet (CTV) to allow T cell proliferation assessment.
FIG. 6. T cell proliferation. In the assay of FIG. 3, proliferation of CD4+ (A) and CD8+ (B) T cells was measured by FACS 144h after stimulation with HLA-A2 WT-1 TCB by analysis of CTV dye dilution.
FIG. 7. Counts of CD4+ and CD8+ T cells. In the assay of FIG. 3, CD4+ (A) and CD8+(B) T cells counts were measured by FACS, mean of 3 donors+/−SD. paired t test, one tailed p value: 0.1234 (ns), 0.0332 (*), 0.0021 (**), 0.0002 (***), <0.0001 (****).
Furthermore, we assessed T cell proliferation 120 hours after the addition of 100 nM dasatinib in the killing assay by measuring the dilution peaks of the CellTrace™ violet (CTV) dye by flow cytometry.

CD4+ and CD8+ T cells [3] = assay: CD19-TCB-induced T cell activation (CD69, CD25) in the SUDLH-8 assay; type: cell-based, human; conditions: 100 nM dasatinib, 24 hrs; monohydrate
Procedure: FIG. 28. […] The expression of CD69 (A) and CD25 (B) on CD4+ T cells was measured by flow cytometry at 24 hrs in the assay described in FIG. 26. Mean of n=3 donors+SD. One way ANOVA, Friedman test, p-value: 0.1234 (ns), 0.0332 (*), 0.0021 (**), 0.0001 (***), <0.0001 (****).
FIG. 29. […] The expression of CD69 (A) and CD25 (B) on CD8+ T cells was measured by flow cytometry at 24 hrs in the assay described in FIG. 26. Mean of n=3 donors+SD. One way ANOVA, Friedman test, p-value: 0.1234 (ns), 0.0332 (*), 0.0021 (**), 0.0001 (***), <0.0001 (****).
The killing of CTV labelled SUDLH-8 cells was measured by flow cytometry using a Live/Dead Near Infra Red (NIR) dye. […] The expression of CD69 and CD25 were measured on CD4+ (FIG. 28) and CD8+(FIG. 29) T cells by flow cytometry as a readout for T cell activation. […] Lastly, the cytokine levels were analyzed in the supernatants of the assay by Luminex to evaluate the effect of dasatinib on CD19-TCB-induced cytokine release (FIGS. 30 and 31).

Cc1nc(Nc2ncc(C(=O)Nc3c(C)cccc3Cl)s2)cc(N2CCN(CCO)CC2)n1 [dasatinib, N-(2-chloro-6-methylphenyl)-2-[[6-[4-(2-hydroxyethyl)-1-piperazinyl]-2-methyl-4-pyrimidinyl]amino]-5-thiazole carboxamide monohydrate]
killing of CTV labelled Z138 target cells (ON/OFF versus ON/ON) (Z138 target cells): effectively prevented the killing | inhibition at 0.0125 µM (MKN45 NLR target cells; Homo sapiens, MKN-45, 12.5 nM dasatinib, 1 nM CEA-TCB, read-out: inhibition of target-cell killing): 69% | inhibition at 0.05 µM (MKN45 NLR target cells; Homo sapiens, MKN-45, 50 nM (24.4 ng/mL) dasatinib, 1 nM CEA-TCB, read-out: inhibition of target-cell killing): 88.2% | inhibition at 0.1 µM (MKN45 NLR target cells; Homo sapiens, MKN-45, 100 nM (48.8 ng/mL) dasatinib, 1 nM CEA-TCB, read-out: inhibition of target-cell killing): 90.4% | threshold in vitro concentration for preventing T cell mediated target-cell lysis (MKN45 NLR target cells; PBMCs stimulated with both TCB (CEA-TCB, HLA-A2 WT-1-TCB)): 12.5 nM | inhibition of killing (MKN45 NLR target cells; dasatinib concentrations below 12.5 nM, 1 nM CEA-TCB): only partially inhibited killing | CD19-TCB-induced serum IL-2, TNF-α, IFN-γ and IL-6 ([1]; listed as Dasatinib): prevents CD19-TCB induced cytokine release in vivo | CD19-TCB-induced serum IL-2, TNF-α, IFN-γ and IL-6 [1]: inhibited | TCB-induced T cell proliferation (CTV dilution) (CD4+ and CD8+ T cells [2]; 100 nM dasatinib added at 24 h, 120 hours after addition, 10 nM HLA-A2 WT-1-TCB): inhibited TCB-induced T cell proliferation with a stronger impact on CD4+ T cells than CD8+ T cells | CD4+ and CD8+ T cell counts (CD4+ and CD8+ T cells [2]; 100 nM dasatinib versus positive control without dasatinib): significantly higher in positive control samples which were not treated with 100 nM dasatinib, than in samples treated with 100 nM dasatinib | CD19-TCB-induced CD4+ and CD8+ T cell activation (CD69, CD25) (CD4+ and CD8+ T cells [3]): prevents CD19-TCB-induced CD4+ T cell activation; also recorded: prevents CD19-TCB-induced CD8+ T cell activation; also recorded: prevented CD4+ and CD8+ T cell activation
